In US12674038B2, “Composition and method for microbial control for use with polymers” (MICROBAN PRODUCTS COMPANY, priority 2022, dated 2026):

System: Escherichia coli (gram-negative bacteria)
Assay: Antimicrobial efficacy of polymer samples against Escherichia coli, ISO22196 test method
Conditions: E. coli

With `O=C(O)c1ccccc1` [GBA, benzoic acid] the “log reduction (consistent antimicrobial efficacy)” value (5250 ppm level in TPU) was greater than 1 and the log reduction (TPU, 4500 ppm GBA alone) was “less than 1”.
